Usually IC50 stands for the concentration that inhibits the measured activity by half.

The results in this text go back to patent US5814627A, “3, 5-disubstituted and 3, 4, 5-trisubstituted 2-isoxazolines and isoxazoles, process for their preparation and their use as pharmaceuticals” (Hoechst Aktienegesellschaft, priority 1994, dated 1998).

Test [1] has as its system tumor cell line 20-10-5S (hybridoma cell line). In words: Test 8: Inhibition of tumor cell proliferation. The note with it: 48 h + 16 h tritiated thymidine incorporation; 20-10-5S cells. It counts as cell-based. In general terms: Uptake of a labelled nucleoside into DNA is a usual measure of proliferation.
Procedure: The tumor cell line 20-10-5S (hybridoma cell line, supplied by ATCC (American Type Culture Collection)), which produces an antibody against mouse T cells) was used for determining the antiproliferative property of test substances. The cells were cultured, at 37° C. and 5% C2, under serum-free conditions in CG medium (cell-growth medium=Iscove-ATL (+albumin+transferrin+lipids); from Vitromex, Vilshofen). Only cells which were in the logarithmic phase of growth were used for the test mixture. The test substances were pipetted in various concentrations (from 1 to 50 μM), together with 4×10^3 20-10-5S cells, into round-bottomedmicrotiter plates (total volume with medium, 200 μl). After an incubation time of 48 h (37° C. and 5% CO2), 25 μl of tritiated thymidine (=0.25 μCi/test mixture, specific activity, 23 Ci/mM) were added to the plates. During the subsequent 16 h, the radioactively labeled thymidine was incorporated into the DNA of the growing cells. The samples were filtered off with suction on glass fiber filters and the incorporated radioactivity was measured using a β counter (Beta Plate System 1205 from Wallac).
Test [2] has as its system cyclooxygenase-dependent thrombocyte aggregation. In words: Test 5: Cyclooxygenase-dependent thrombocyte aggregation. It counts as cell-based, human. The note with it: arachidonic acid as inducer. Here is the method:
TEST 5. Cyclooxygenase-dependent thrombocyte aggregation
Platelet-rich plasma (PRP): to inhibit coagulation, human blood was treated with 1/10 of its volume of 3.8% sodium citrate solution. Centrifugation then takes place at 105×g for 20 minutes and the supernatant (PRP) is removed. 200 μl of PRP were preincubated, at 37° C. for 10 minutes, together with 30 μl of test substance in a PAP4 aggregometer (BioData). The test substance was dissolved in organic solvent and diluted 1:30 with buffer (50 mM TisHCl, pH 8.0; 90 mM NaCl). Aggregation is triggered with 20 μl of inducer. During the aggregation, stirring takes place at 800 rpm. Arachidonic acid, 5 mg/ml, was used as the inducer.
The values in the table show the concentration of the test substance which was employed in μM and, besides this, the residual activity measured in percent based on the control, which was set to be 100%. The interleukin is additionally indicated in test 4.

Where [3] appears, read: Homo sapiens, 100 μM, read-out: Test 5 residual activity (cyclooxygenase-dependent thrombocyte aggregation), percent of control.
Where [4] appears, read: Homo sapiens, read-out: Test 5 residual activity (cyclooxygenase-dependent thrombocyte aggregation), percent of control.

For the compound `CC(OC(=O)[C@@H](N)Cc1ccc(O)cc1)C1CC(c2cc(C(C)(C)C)c(O)c(C(C)(C)C)c2)=NO1` (mixture of isomers) [Example 88, L-Tyrosyl 1-(3-(3,5-di-tert-butyl-4-hydroxyphenyl)-2-isoxazolin-5-yl)ethyl ester, rac. 5,5'-erythro isomer mixture], the IC50 in test [1] was determined as 10 µM.

For `CC(C)(C)c1cc(C2=NO[C@H]([C@@H]3CO3)C2)cc(C(C)(C)C)c1O` (relative stereo) [Example 17], the IC50 in test [1] is 8 to 15 µM. On to `CCOP(=O)(/C=C/c1cc(-c2cc(C(C)(C)C)c(O)c(C(C)(C)C)c2)no1)OCC` [Example 57, Diethyl 2-(3-(4-hydroxy-3,5-di-tert-butylphenyl)isoxazol-5-yl)vinylphosphonate], for which, in test [2] (setting [3]), the activity at 100 µM is 99%. Moreover, the IC50 in test [1] was < 5 µM. Regarding `CC(C)(C)c1cc(-c2cc(CCCOC(=O)NCC(=O)O)on2)cc(C(C)(C)C)c1O` [Example 42, N-(3-(4-Hydroxy-3,5-di-tert-butylphenyl)isoxazol-5-ylpropoxycarbonyl)glycine], the IC50 in test [1] is 5 to 10 µM. As for `CN(O)C(=O)C(C)(C)OCc1cc(-c2cc(C(C)(C)C)c(O)c(C(C)(C)C)c2)no1` [Example 37, N-Methylhydroxamoyl-2-((3-(4-hydroxy-3,5-di-tert-butylphenyl)isoxazol-5-ylmethoxy)-2-methyl propionate], in test [1], the IC50 is < 5 µM.

For `COC(=O)CCc1cc(-c2cc(C(C)(C)C)c(O)c(C(C)(C)C)c2)no1` [Example 44], the activity at 10 µM in test [2] (Homo sapiens, 10 μM, read-out: Test 5 residual activity (cyclooxygenase-dependent thrombocyte aggregation), percent of control) came out at 99%. In addition, the IC50 in test [1] lay in the range of 5 to 10 µM. On to `CC(=O)O[C@@H](C(=O)O)[C@@H](OC(C)=O)C(=O)NCc1cc(-c2cc(C(C)(C)C)c(O)c(C(C)(C)C)c2)no1` [Example 82, Di-O-acetyl-L-tartaric acid-N-(3-(4-hydroxy-3,5-di-tert-butylphenyl)isoxazol-5-yl)methylamide], for which the activity at 100 µM in test [2] (setting [3]) worked out at 93%. With `CC(C)(C)c1cc(-c2cc(CCC(=O)O)on2)cc(C(C)(C)C)c1O` [Example 45, 3-(4-Hydroxy-3,5-di-tert-butylphenyl)isoxazol-5-ylpropionic acid], the activity at 100 µM in test [2] (setting [3]) was 98%. Moreover, in test [1], the IC50 is 5 to 10 µM.

Turning to `CC(C)(C)c1cc(C2=NOC(COC(=O)NCC(=O)O)C2)cc(C(C)(C)C)c1O` (stereo not shown) [Example 4, N-(3-(4-Hydroxy-3,5-di-tert-butylphenyl)-2-isoxazolin-5-ylmethoxycarbonyl)glycine], in test [1], the IC50 was 30 µM. As for `CCOC(=O)COC(C)(C)c1cc(-c2cc(C(C)(C)C)c(O)c(C(C)(C)C)c2)no1` [Example 33, Ethyl (1-(3-(4-hydroxy-3,5-di-tert-butylphenyl)isoxazol-5-yl)-1-methylethoxy)acetate], in test [1], the IC50 is < 5 µM. In the case of `CCOC(=O)CNC(=O)OCc1cc(-c2cc(C(C)(C)C)c(O)c(C(C)(C)C)c2)no1` [Example 39, N-(3-(4-Hydroxy-3,5-di-tert-butylphenyl)isoxazol-5-ylmethoxycarbonyl)glycine ethyl ester], in test [2] (setting [3]), the activity at 100 µM was found to be 98%. The IC50 in test [1] worked out at 30 µM. Turning to `CC(C)(C)c1cc(-c2cc(C(C)(C)O)on2)cc(C(C)(C)C)c1O` [Example 29], the IC50 in test [1] was < 5 µM. Regarding `CC(O)CC(O)CC1CC(c2cc(C(C)(C)C)c(O)c(C(C)(C)C)c2)=NO1` (stereo not shown) [Example 78], the activity at 50 µM in test [2] (setting [4]) stood at 94%. For the same compound, the IC50 in test [1] fell in the range of 5 to 10 µM. For the compound `CC(C)(OCC1CC(c2cc(C(C)(C)C)c(O)c(C(C)(C)C)c2)=NO1)C(=O)O` (stereo not shown) [Example 3, 2-(3-(4-Hydroxy-3,5-di-tert-butylphenyl)-2-isoxazolin-5-ylmethoxy)methylpropionic acid], the activity at 100 µM in test [2] (setting [3]) was 98%. Besides, the half-inhibitory concentration (IC50) in test [1] came out at 10 µM. For `CCC(C)(O)c1cc(-c2cc(C(C)(C)C)c(O)c(C(C)(C)C)c2)no1` (stereo not shown) [Example 31], in test [2] (setting [3]), the activity at 100 µM amounted to 100%.

On to `C[C@@H](OP(=O)(Oc1ccccc1)Oc1ccccc1)[C@@H]1CC(c2cc(C(C)(C)C)c(O)c(C(C)(C)C)c2)=NO1` (relative stereo) [Example 85, Diphenyl 1-(3-(4-hydroxy-3,5-di-tert-butylphenyl)-2-isoxazolin-5-yl)ethyl phosphate], for which, in test [2] (100 μM), the “Test 5 residual activity (cyclooxygenase-dependent thrombocyte aggregation), percent of control” value worked out at 94%. The IC50 in test [1] is < 5 µM. Turning to `CC(C)(C)c1cc(-c2cc(/C=C/P(=O)(O)O)on2)cc(C(C)(C)C)c1O` [Example 58, 2-(3-(4-Hydroxy-3,5-di-tert-butylphenyl)isoxazol-5-yl)vinylphosphonic acid], the activity at 100 µM in test [2] (setting [3]) was 99%. Consider `C=CCC(O)CC1CC(c2cc(C(C)(C)C)c(O)c(C(C)(C)C)c2)=NO1` (stereo not shown) [Example 79], for which the activity at 100 µM in test [2] (setting [3]) stood at 96%. The IC50 in test [1] lay within 5 to 10 µM.

In the case of `CC(C)(C)c1cc(-c2cc(C(C)(C)OCC(=O)O)on2)cc(C(C)(C)C)c1O` [Example 34, (1-(3-(4-Hydroxy-3,5-di-tert-butylphenyl)isoxazol-5-yl)-1-methylethoxy)acetic acid], the activity at 100 µM in test [2] (setting [3]) came out at 98%. For the compound `CC(C)(C)c1cc(C2=NO[C@H]([C@H]3CO3)C2)cc(C(C)(C)C)c1O` (relative stereo) [Example 16], the IC50 in test [1] worked out at 30 µM.

Regarding `CC(C)(C)c1cc(C2=NOC(C(N)=O)C2)cc(C(C)(C)C)c1O` (stereo not shown) [Example 11], the IC50 in test [1] is < 5 µM. Turning to `C=CCC(O)CC1CC(c2cc(C(C)(C)C)c(O)c(C(C)(C)C)c2)=NO1` (stereo not shown) [Example 80], the activity at 50 µM in test [2] (setting [4]) was 97%. The IC50 in test [1] fell in the range of 5 to 10 µM.
